Laboratory results from patent US20170143712A1, “Methods of Treating Cancers, Immune and Autoimmune Diseases, and Inflammatory Diseases Based on BTK Occupancy and BTK Resynthesis Rate” (Acerta Pharma B.V., priority 2014, published 2017).

What was measured:
[1] = test system: BCR signaling through BTK; experiment: Anti-IgM induced CD86 and CD69 on splenocyte B cells of CIA mice; assay type: in vivo, mouse; conditions: splenocytes 3 hr after last dosing on day 14
Description: (§1) FIG. 45 illustrates changes in a functional measure of BCR signalling through the CD86 marker. Mouse splenocytes were isolated from spleens from mice that were part of the mouse CIA study semi-therapeutic protocol, 3 hr after the last dosing on day 14 of the treatment and cryopreserved. After thawing, inhibition of anti-IgM-induced PD markers CD86 and CD69 on mouse splenocyte B cells were measured. Error bars represent the standard deviation for the 3 sets of splenocytes analyzed.
as §1, with “FIG. 46” for “FIG. 45”, “the CD69” for “the CD86”
Inhibition of the BCR signaling through BTK was evaluated by ex vivo stimulation of splenocytes using IgM and evaluation of CD86 and CD69 as functional responses of BCR stimulation.

[2] = test system: established type II collagen-induced arthritis (CIA) in DBA/1 mice; experiment: 14-day mouse established type II collagen-induced arthritis (CIA), PO QD (Example 10); assay type: in vivo; conditions: for arthritis scores measured daily vs vehicle controls / disease-induced body weight loss (percent change from baseline) vs vehicle controls: p<0.05 on the days printed; for AUC (All Paws) - Corrected for Initial Score / Change in Body Weight (g) / Histopathology Summed Score Knees / Histopathology Summed Score Paws / Histopathology Summed Score Six-Joints / Paw Score AUC (All Paws): mean(SE); for spleen weights compared to vehicle controls: all dose groups PO QD
Description: Prior to dosing, the candidate anti-inflammatory agents were reconstituted either by vortexing or stirring. The candidate anti-inflammatory agents were administered to the DBA/1 mice daily (QD) by the oral (PO) route.
Immunization with heterologous type II collagen (CII) induces arthritis in mice of the DBA/1 strain, which is genetically susceptible to this disease. To develop an experimental model of autoimmunity more adequate for the study of human rheumatoid arthritis (RA), male DBA/1 mice were injected intradermally (ID) with bovine type II collagen to induce arthritis as reported by Trentham et al (Trentham D E, Townes A S, Kang A H Autoimmunity to type II collagen: an experimental model of arthritis. J. Exper. Med. 1977, 146:857-868) and Bendele A (Bendele A, Animal models of rheumatoid arthritis. J. Musculoskelet. Neuronal Interact. 2001, 1(4):377-85). Male DBA/1 mice (n=114) that were 6-7 weeks old and weighed approximately 18-27 grams (mean 22 g) at enrollment (arthritis day 1) were obtained from Taconic Farms, Inc. The male DBA/1 mice were at least 6 weeks old at time of first immunization and were housed 3-5/cage in shoe-box polycarbonate cages with wire tops, wood chip bedding, and suspended food and water bottles. These animals were identified by a distinct number of ink marks at the base of the tail delineating animal number. After enrollment, all cages were labeled with protocol number, group number, and animal numbers.
The male DBA/1 (n=10/group for arthritis) were anaesthetized with Isoflurane, shaved at the base of the tail, and injected intradermally with 150 μL of Freund's Complete Adjuvant (Difco, Detroit, Mich.) containing bovine type II collagen (BBP, batch #7) (1 mg/ml) at the base of the tail on day 0 and again on day 21. […] Randomization was done after swelling was obviously established in at least one paw (score of 1) and attempts were made to ensure approximately equal mean scores of 0.5-1 across groups at the time of enrollment. […] The male DBA/1 mice were terminated on arthritis day 14 (3 hours post-dose).
Efficacy evaluation of the administered anti-inflammatory agents was based on animal body weights, clinical arthritis scores, arthritis scores expressed as area under the curve (AUC), and histopathology on fore paws, hind paws, and knees. Histopathology results were expressed as 4 paws, knees only, or 6 joints (knees included). Day 13 was used as the endpoint for analysis of body weight change since the male DBA/1 mice were fasted overnight prior to necropsy on day 14.

MDA-MB-231 tumor cells = experiment: Osteolytic bone lesions after intratibial MDA-MB-231 tumor inoculation in nude rats; assay type: in vivo, rat; parameters: mean visual lysis score: scale not given here; mean left tibial density: unit not given here; conditions: zoledronate group (Group 2)
Description: FIG. 40A, FIG. 40B, FIG. 40C, FIG. 40D, FIG. 40E, FIG. 40F, and FIG. 40G illustrate the bone density in hind limbs of nude rats (n=6 per group) implanted with intratibial MDA-MB231 tumor […] and treated for up to 41 days with vehicle control, zoledronate (active control) or varying doses of Formula (II). Oral gavage administration of Formula (II) was scheduled as 3 days of initial QD dosing, followed by 30 days of BID dosing at the following dose levels: 3/3, 30/30, and 180/90 mg/kg/day. An untreated group of rats, without tibial implants (n=3) represents bone density of concurrently obtained normal rat tibial images. Statistical significance was determined by two-way ANOVA-Dunnett: ns=not significant, *=P<0.05, **=P<0.01, ***=P<0.001, versus Group 1.
Rats were inoculated with MDA-MB-231 tumor cells on Day 1, baseline radiographs were taken on Day 2, and treatment with Formula (II) began on Day 8. Radiographs were taken on Days 10, 17, 24, 31, 38, and 41. Anti-osteolytic activities were determined from differences in bone density and visual lysis scores between the drug-treated and vehicle-treated groups on each observation day, and also from changes in bone density and visual lysis scores in tumor-inoculated left tibias at baseline (Day 2) compared to Days 10, 17, 24,31, 38, and 41.
Radiographs were blinded for both analyses. […] Visual osteolysis was not detected in any rat in the nave group. The 4% increase in mean bone density from baseline to study end presumably reflected normal growth in these rats.

[3] = 5 mg/kg PO QD, prophylactic paws
[4] = 5 mg/kg PO QD, prophylactic paws only
[5] = 5 mg/kg PO QD, therapeutic paws only

| SMILES | BCR-mediated signaling (anti-IgM induced CD86 and CD69) [1] | six-joint histopathology, reduction of summed scores vs vehicle controls ([2]; 5 mg/kg PO QD) | Clinical arthritis scores AUC, reduction vs vehicle controls ([2]; 5 mg/kg PO QD, all paws) | Clinical arthritis scores AUC, reduction when corrected for initial enrollment score ([2]; 5 mg/kg PO QD, all paws) | arthritis scores measured daily vs vehicle controls ([2]; 5 mg/kg PO QD, all paws) | AUC (All Paws) - Corrected for Initial Score ([2]; 5 mg/kg PO QD) | Change in Body Weight (g) ([2]; 5 mg/kg PO QD) | Histopathology Summed Score Knees ([2]; 5 mg/kg PO QD) | Histopathology Summed Score Paws ([2]; 5 mg/kg PO QD) | Histopathology Summed Score Six-Joints ([2]; 5 mg/kg PO QD) | Paw Score AUC (All Paws) ([2]; 5 mg/kg PO QD) | disease-induced body weight loss (percent change from baseline) vs vehicle controls ([2]; 5 mg/kg PO QD) | daily arthritis scores vs vehicle controls [2, 3] | Clinical arthritis scores AUC, reduction vs vehicle controls [2, 4] | spleen weights compared to vehicle controls [2] | other results |
| --- | --- | --- | --- | --- | --- | --- | --- | --- | --- | --- | --- | --- | --- | --- | --- | --- |
| CC#CC(=O)N1CCOC[C@H]1c1nc(-c2ccc(C(=O)Nc3ccccn3)cc2)c2c(N)nccn12 [(R)-4-(8-amino-3-(4-(but-2-ynoyl)morpholin-3-yl)imidazo[1,5-a]pyrazin-1-yl)-N-(pyridin-2-yl)benzamide] | dose-responsive decreases in BCR-mediated signaling | 75% | 74% | 90% | significantly reduced toward normal | *3.43(2.22) | −0.04(0.92) g | *2.65(0.79) | 4.24(1.07) | *3.71(0.87) | *10.58(2.95) | significantly inhibited toward normal | significantly reduced toward normal | 95% | not significantly affected |  |
| CC#CC(=O)N1CC[C@@H](n2c(=O)n(-c3ccc(Oc4ccccc4)cc3)c3c(N)ncnc32)C1 [Formula (XXI), 6-amino-9-[(3R)-1-(2-butynoyl)-3-pyrrolidinyl]-7-(4-phenoxyphenyl)-7,9-dihydro-8H-purin-8-one] | dose-responsive decreases in BCR-mediated signaling | 85% | 86% | 104% | significantly reduced toward normal | *−1.33(1.48) | *0.89(0.71) g | *3.48(1.17) | *1.46(0.47) | *2.13(0.66) | *5.83(1.53) | significantly inhibited toward normal | significantly reduced toward normal | 100% | not significantly affected | six-joint histopathology, reduction of summed scores vs vehicle controls ([2]; 1 mg/kg PO QD): 73%; total body weight loss from enrollment to study termination ([2]; 1 mg/kg PO QD): significantly inhibited; Clinical arthritis scores AUC, reduction vs vehicle controls ([2]; 1 mg/kg PO QD, all paws): 65%; Clinical arthritis scores AUC, reduction when corrected for initial enrollment score ([2]; 1 mg/kg PO QD, all paws): 79%; arthritis scores measured daily vs vehicle controls ([2]; 1 mg/kg PO QD, all paws): significantly reduced toward normal; AUC (All Paws) - Corrected for Initial Score ([2]; 1 mg/kg PO QD): 7.28(3.26); Change in Body Weight (g) ([2]; 1 mg/kg PO QD): *0.33(0.82) g; Histopathology Summed Score Knees ([2]; 1 mg/kg PO QD): *3.45(1.22); Histopathology Summed Score Paws ([2]; 1 mg/kg PO QD): *4.14(1.27); Histopathology Summed Score Six-Joints ([2]; 1 mg/kg PO QD): *3.91(1.13); Paw Score AUC (All Paws) ([2]; 1 mg/kg PO QD): *14.43(4.11); disease-induced body weight loss (percent change from baseline) vs vehicle controls ([2]; 1 mg/kg PO QD): significantly inhibited toward normal; daily arthritis scores vs vehicle controls ([2]; 1 mg/kg PO QD, prophylactic paws): significantly reduced toward normal; Clinical arthritis scores AUC, reduction vs vehicle controls ([2]; 1 mg/kg PO QD, prophylactic paws only): 99%; total body weight loss from enrollment to study termination ([2]; 5 mg/kg PO QD): significantly inhibited; daily arthritis scores vs vehicle controls ([2]; 5 mg/kg PO QD, therapeutic paws): significantly reduced toward normal; Clinical arthritis scores AUC, reduction vs vehicle controls [2, 5]: 66%; Clinical arthritis scores AUC, reduction when corrected for initial enrollment score [2, 5]: 113% |
| O=P(O)(O)C(O)(Cn1ccnc1)P(=O)(O)O [zoledronate, reference compound] |  |  |  |  |  |  |  |  |  |  |  |  |  |  |  | mean left tibial density (MDA-MB-231 tumor cells; Day 2 baseline): 200.0±1.6; increase in mean left tibial density (MDA-MB-231 tumor cells; Day 2 to Days 31 and 41): 4-6%; mean left tibial density (MDA-MB-231 tumor cells; Day 31): 207.8±1.6; mean left tibial density (MDA-MB-231 tumor cells; Day 41): 211.2±1.6; mean visual lysis score (MDA-MB-231 tumor cells; Days 31 and 41 each): 0.7 |
